{
  "source": "paper PMC8904451",
  "about": "“Novel chalcone-derived pyrazoles as potential therapeutic agents for the treatment of non-small cell lung cancer” (Scientific Reports, 2022)",
  "format_in_all_cases": "cell-based, human",
  "key": {"[1]": {"tested_on": "H460 cells", "assay": "MTT cell viability assay, H460", "method": "All the synthesized chalcone-derived pyrazoles were evaluated for their antiproliferative activity against three human non-small cell lung cancer cell lines: A-549, H226, and H460, and a nonmalignant human embryonic kidney cell line HEK293. Cisplatin and 5-fluorouracil (5-FU) were used as a reference. Cells were exposed to a range of PCH concentrations (0.5–100 µM) for 72 h and analyzed by 3-(4,5-dimethylthiazol-2-yl)-2,5-diphenyl-2H-tetrazolium bromide (MTT) assay. The results of the studies are expressed as the IC50 concentration that inhibits 50% growth of cells. […] Following treatment with PCH-1, the viability of all the tested cancer cell lines decreased in a concentration-dependent manner.\nThe cell viability assay was performed for A-549, H226, H460, and HEK293 cells after treatment with the test compounds by using the 3-(4,5-dimethylthiazol-2-yl)-2,5-diphenyltetrazolium bromide (MTT, Sigma-Aldrich) assay. Briefly, cells were seeded onto 96-well culture plates for attachment. After 24 h, triplicate wells were treated with DMSO (1%) and the agents. After 72 h of incubation at 37 °C in 5% CO2, the MTT solution (0.4 mg/ml) was added to each well. After 2–4 h of incubation, the medium was removed, and the formazan crystals were dissolved in 100 μl of DMSO. The absorption was measured at 450 nm with an ASYS UVM340 microplate reader (Biochrom Ltd.). The 50% inhibitory concentration (IC50) was defined as the concentration that reduced the absorbance of the DMSO-treated wells by 50% of the vehicle. The IC50 values were generated from GraphPad Prism 9 software by plotting the survival curve as a function of dose from 3 independent experiments."}, "[2]": {"tested_on": "A-549 cells", "assay": "Wound healing migration assay", "method": "To further confirm the antimigratory potential of PCH-1, the wound healing assay was performed on A-549 cells. […] This effect was retained during the entire exposure time, with the highest difference during 18–24 h compared to that in the control group. Finally, the anti-migratory properties of PCH-1 were studied by co-treatment A-549 cells with TGF-β1.\nTo analyze cell motility, A-549 cells were seeded onto the Ibidi-silicone insert on a cover glass-bottom 24-well plate for live cell imaging and incubated for 24 h. Subsequently, the inserts were dislodged, the cellular debris was removed by washing with RPMI, and the cells were incubated with different concentrations of PCH-1, and/or 2.5 ng/ml TGF-β1 (Sigma-Aldrich) in an imaging chamber (cellVivo incubation system, Olympus) at 37 °C with 5% CO2. Images were captured every 10 min for 20 or 42 h under × 10 magnification using a fluorescence microscope (IX83 Inverted Microscope, Olympus) connected to an XC50 digital color camera (Olympus). The percentage of wound closure was quantified with ImageJ software."}, "[3]": {"tested_on": "A-549 cells", "assay": "Western blot of apoptotic and EMT-related proteins", "method": "To investigate the potential molecular mechanisms responsible for PCH-1-induced apoptosis in A-549 cells, we measured the expression of apoptosis-related proteins by western blot analysis. […] Next, we determined the role of the antiapoptotic protein Bcl-2 as well as the proapoptotic proteins Bax and Bid in PCH-1-induced cell death in A-549 cells. […] Additionally, we observed Bid cleavage (48 h: *p < 0.01), which was noted as a reduction in full-length Bid protein.\nEpithelial-mesenchymal transition (EMT) plays a crucial role in tumorigenesis by promoting cell motility, migration, and metastasis. Thus, we examined the expression of proteins involved in the EMT process by western blot assays. […] The activity of N-cadherin in A-549 cells was reduced by 45% at 24 h (p = 0.0002) and by 50% at 48 h (p = 0.0002), while vimentin activity was reduced by 43% at 24 h (p = 0.005) and by 46% at 48 h (p = 0.004). Additional PCH-1 inhibited Transforming Growth Factor β1 (TGF-β1) induced mesenchymal-like phenotype in A-549 cells, indicating […] of N-cadherin by 66% at 48 h (p = 0.0003), and another EMT effector β-catenin, which was suppressed by 31% at 24 h (p = 0.0275) and by 66% at 48 h (p = 0.0019).\nCells (1.5 × 10^6) were cultured in tissue culture plates for overnight attachment. The cells were then incubated with IC90 of PCH-1 or 1% DMSO for 6, 24, and 48 h, or were co-treatment with 2.5 ng/ml TGF-β1 (Sigma-Aldrich), and IC90 of PCH-1 or 1% DMSO for 24, and 48 h. Subsequently, the cells were collected and lysed in Laemmli buffer with a protease inhibitor cocktail (Roche) and phosphatase inhibitors [NaF (5 mM), β-glycerophosphate (5 mM), and Na3VO4 (1 mM)]. The cells were then sonicated in triplicate (10 s, 30% amplitude) and centrifuged at 16,000×g at 12 °C for 15 min. Protein concentrations were determined using the DC Protein Assay Kit (Bio-Rad). For determining total protein content, the cellular extract was separated by 10% or 12% sodium dodecyl sulfate–polyacrylamide gel electrophoresis (SDS-PAGE) and transferred onto a microporous polyvinylidene difluoride (PVDF) membrane (Bio-Rad). After blocking with 5% (w/v) BSA (Sigma-Aldrich) in 1 × TBST (pH 7.4 and 0.1% Tween-20) for 1 h, the membranes were incubated overnight with primary antibodies at 4 °C, followed by horseradish peroxidase-conjugated secondary antibodies for 1 h. All the used antibodies are listed in Table S1 in the supplementary information. The immunoreactive signals were detected using an enhanced chemiluminescence (ECL) detection reagent kit (Thermo Fisher) and a ChemiDoc XRS + Imaging System (Bio-Rad). The band intensity was measured using Image Lab 5.2 software (Bio-Rad)."}, "[4]": {"conditions": "A-549 co-treated with 2.5 ng/ml TGF-β1, IC90, 48 h"}},
  "data": [
    {"smiles": "COc1ccc(C2CC(c3cc4c(cc3OC)OCO4)=NN2C(C)=O)cc1", "note": "(centres unmarked) [PCH-1, 1-[3-(6-methoxy-2H-1,3-benzodioxol-5-yl)-5-(4-methoxyphenyl)-4,5-dihydro-1H-pyrazol-1-yl]ethan-1-one]", "values": [
      {"measurement": "superior activity to the reference compound Cisplatin, H460", "setting": "[1]; 72 h IC50 ratio", "result": "~2.6", "unit": "fold"},
      {"measurement": "IC50", "setting": "[1]; Homo sapiens, NCI-H460, 72 h, MTT, read-out: IC50 ± SD, growth inhibition, H460", "result": "8.4 ± 1.1", "unit": "µM"},
      {"measurement": "TGF-β1-induced cell motility (wound closure)", "setting": "[2]; A-549 + 2.5 ng/ml TGF-β1, 5 µM and 10 µM, 20 h", "result": "the wound remained opened"},
      {"measurement": "cell migration (wound closure)", "setting": "[2]; A-549, 10 and 15 µM", "result": "significantly reduced the migration of the cells"},
      {"measurement": "Bcl-2 protein level", "setting": "[3]; A-549, IC90", "result": "not changed"},
      {"measurement": "Bax protein level", "setting": "[3]; A-549, IC90, 6, 24, 48 h", "result": "significant increase"},
      {"measurement": "expression of hTERT", "setting": "[3]; A-549, IC90, 24 and 48 h", "result": "significantly decreased"},
      {"measurement": "reduction of N-cadherin", "setting": "[3]; A-549, IC90, 24 h", "result": 45, "unit": "%"},
      {"measurement": "reduction of vimentin", "setting": "[3]; A-549, IC90, 24 h", "result": 43, "unit": "%"},
      {"measurement": "reduction of N-cadherin", "setting": "[3]; A-549, IC90, 48 h", "result": 50, "unit": "%"},
      {"measurement": "reduction of vimentin", "setting": "[3]; A-549, IC90, 48 h", "result": 46, "unit": "%"},
      {"measurement": "suppression of β-catenin, TGF-β1 induced", "setting": "[3]; A-549 co-treated with 2.5 ng/ml TGF-β1, IC90, 24 h", "result": 31, "unit": "%"},
      {"measurement": "reduction of N-cadherin, TGF-β1 induced", "setting": "[3]; [4]", "result": 66, "unit": "%"},
      {"measurement": "suppression of β-catenin, TGF-β1 induced", "setting": "[3]; [4]", "result": 66, "unit": "%"}
    ]}
  ]
}
